Measurements taken from PMC6723587 (Toxins, 2019).
Like-named read-outs stand apart in the source and are kept apart here.

What was measured:
[1] = in vivo
[2] = in vivo; remark: listed apart in the source
[3] = cited from earlier work
[4] = pigs, cited from earlier work
[5] = pigs, oral single dose DON3G 56 µg/kg bw; cited from earlier work
[6] = system: human cytosolic beta-glucosidases; conditions: in vitro incubation; cited from earlier work
[7] = for the sum of DON, DON3G, 3-ADON and 15-ADON; EFSA; cited from earlier work
[8] = oral single dose DON3G 116 µg/kg bw

SMILES: CC1=C[C@H]2O[C@@H]3[C@H](O[C@@H]4O[C@H](CO)[C@@H](O)[C@H](O)[C@H]4O)C[C@](C)([C@@]2(CO)[C@H](O)C1=O)[C@]31CO1 [DON3G, deoxynivalenol-3-glucoside]
- detection in urine [1]: Neither DON3G nor DOM-1 was detected
- urine sample with the maximum excreted amount [2]: first voided urine sample
- Fabs (fraction absorbed) ([2]; po): 0.53
- Ke (excretion rate constant) ([2]; po): 0.018
- maximum percentage absorbed in the volunteers ([2]; po): 84%
- part absorbed as glucoside, % of the oral dose of DON3G ([2]; po): < 5%
- percentage absorbed, variation among the volunteers ([2]; po): 29-84%
- total amount excreted unchanged in urine, % of the administered dose ([2]; po): 1-5%
- detectability in urine twelve hours after administration ([3]; single dose of DON3G): not detectable
- part of the dose excreted in urine during the first 8 h [4, 8]: approximately 2.5%
- part of the dose excreted in urine during the rest of the 24-hour collection period [4, 8]: 1%
- presence in urine after oral administration [4]: found in urine
- detection in systemic plasma and vena porta plasma [5]: could not be detected
- hydrolysis by human cytosolic beta-glucosidases [6]: did not hydrolyse
- tolerable daily intake (group-TDI) [7]: 1 µg/kg body weight (bw)/day

SMILES: C=C1[C@@H]2O[C@@H]3C=C(C)C(=O)[C@@H](O)[C@]3(CO)[C@@]1(C)C[C@H]2O [DOM-1, de-epoxy-deoxynivalenol]
- detection in urine [1]: Neither DON3G nor DOM-1 was detected
- part of total DON3G recovered in urine ([3]; after administration of DON3G): approximately 7%

SMILES: CC1=C[C@H]2O[C@@H]3[C@H](O)C[C@](C)([C@@]2(CO)[C@H](O)C1=O)[C@]31CO1 [DON, deoxynivalenol]
- Fabs (fraction absorbed) ([1]; both, human, po): 0.56
- maximum percentage absorbed in the volunteers ([1]; both, human, po): 98%
- percentage absorbed, variation among the volunteers ([1]; both, human, po): 30-98%
- tolerable daily intake (group-TDI) [7]: 1 µg/kg body weight (bw)/day

SMILES: CC(=O)OC[C@]12[C@H](O)C(=O)C(C)=C[C@H]1O[C@@H]1[C@H](O)C[C@@]2(C)[C@]12CO2 [15-ADON, 15-acetyldeoxynivalenol]
- tolerable daily intake (group-TDI) [7]: 1 µg/kg body weight (bw)/day

SMILES: CC(=O)O[C@@H]1C[C@]2(C)[C@@]3(CO)[C@H](O)C(=O)C(C)=C[C@H]3O[C@H]1[C@@]21CO1 [3-ADON, 3-acetyldeoxynivalenol]
- tolerable daily intake (group-TDI) [7]: 1 µg/kg body weight (bw)/day
